Assays:
serum phosphate [1] = settings: previous studies (2-10); cited from earlier work
[2] = Single-dose toxicity studies; format: in vivo, rodents and dogs
[3] = In vitro and in vivo mutagenicity tests
[4] = in vivo, cited from earlier work
serum phosphate [5] = test: VIT-30: serum phosphate; format: in vivo, human
Source text: (§1) FIG. 1 is a line and scatter plot showing mean changes in phosphate (left vertical axis) or changes in FGF-23 (right vertical axis) with respect to baseline value at each study day (0, 7, 14, 28, or 56) as indicated on the Horizontal (X) axis for trial VIT30. […] Further details regarding methodology are provided in Example 2.
(§2) Study visits were on Days 0, 3, 7, 10, 14, 28, 56, and 120. A phone assessment occurred on Day 90.
Clinical laboratory variables were presented in 2 ways. First, change from baseline to Day 7, Day 14, Day 28, and Day 56 were summarized. Baseline was defined as the last value obtained prior to the first injection of study drug. Second, the number and proportion of subjects with treatment-emergent PCS laboratory values were tabulated. Treatment-emergent PCS values were those in which the baseline value was normal and post-baseline value was abnormal (i.e., met Grade 3 or Grade 4 toxicity criteria from the National Cancer Institute Common Toxicity Criteria for Adverse Events, Version 3.0 [NCI CTCAE]).
For serum phosphate and platelet count, change from baseline to the smallest value after baseline and final value were also summarized. For subjects whose baseline value was above the lower reference range and who had at least 1 value below the lower reference range after baseline, the following were summarized: the number of days from baseline to the first value below the lower reference range and the number of days from the first value below the lower reference range until the first succeeding value within the reference range.

FGF-23 = test: VIT-30: FGF-23; format: in vivo, human
Source text: as §1, §2
For quantitative baseline characteristics, the association with FGF-23 at Screening was evaluated with Pearson product moment and Spearman correlations. For qualitative baseline characteristics, the association with FGF-23 at Screening was evaluated with mean differences in FGF-23 among categories of the baseline characteristic.
Descriptive statistics for FGF-23 at Screening (mean, median, standard deviation, quartiles, minimum, and maximum) were summarized for subgroups.

[6] = Example 3 trial: adverse events; format: in vivo, human
Procedure: Study visits were on Days 0 (when iron was infused), 1 (24 hours after iron infusion), 7, 14, and 35. The primary objectives were to determine the effect of iron deficiency on cFGF23 and iFGF23 levels and the effect of intravenous iron on iFGF23 and cFGF23 levels.
Randomization occurred centrally via a fax-based system. […] The complete dose was infused over 15 minutes on day 0. […] An initial test dose of 25 mg was administered slowly over 5 minutes.
Laboratory testing of blood and three-hour urine collections was performed at the screening visit and on study days 0 (when iron was infused), 1 (24 hours after iron infusion), 7, 14, and 35 (see e.g., FIG. 2A). Any subject who experienced a reduction in serum phosphate below the normal range after day 0 underwent additional phosphate measurements at 14 day intervals following day 35 until the level returned to the normal reference range. Safety evaluations of all subjects included ascertainment of adverse events, physical examinations at all study visits, and laboratory assessments. Any subject who withdrew from the study received a follow-up phone call to ascertain adverse events 30 days after they received study drug.
The pre-specified primary endpoints were changes in blood and urine markers of phosphate and bone metabolism among the evaluable population, defined as those subjects with baseline and at least one post-randomization set of FGF23 and blood and urinary phosphate levels. Secondary endpoints included the proportion of subjects achieving a hemoglobin increase […] anytime between baseline and day 35, and the change from baseline to highest hemoglobin, ferritin, and TSAT anytime during the 35-day study period. Additional safety endpoints included incidence, severity, and seriousness of adverse events, and incidence of treatment-emergent abnormal clinical laboratory values in the safety population, defined as all subjects who received the study drug regardless of subsequent laboratory testing.
The number and proportion of subjects who experienced an adverse event in the safety population was summarized and rates between the iron treatment groups using Fisher's exact test were compared for the categorical safety endpoints. Analyses were conducted using SAS version 9 (Cary, N.C.). All statistical tests were 2-tailed and p values<0.05 were considered statistically significant.

[7] = Intra-arterial, perivenous, or intravenous tolerance studies; format: in vivo, rabbit; settings: intra-arterial
phosphate = test: Prior studies 1VIT04002/1VIT04003: phosphate change after FCM; format: in vivo, human; settings: iron deficiency anemia secondary to heavy uterine bleeding; measured at baseline and days 7, 14, 28, 42; N=228
[8] = Acute toxicity relative to iron sucrose; settings: in vivo
Source text: FCM can mimic physiologically occurring ferritin. FCM is metabolized by the glycolytic pathway.

[9] = Days 7, 14, 28, 56, trial VIT30

polynuclear iron (III)-hydroxide 4(R)-(poly-(1→4)-O-α-glucopyranosyl)-oxy-2(R),3(S),5(R),6-tetrahydroxy-hexanoate [FCM]
occurrence of transient reductions in serum phosphate levels (serum phosphate [1]): up to 60% | safe and tolerated single intravenous dose, as multiple of the equivalent of 1,000 mg iron once weekly in humans [2]: up to 60 times | clastogenicity, mutagenicity, chromosomal damage or bone marrow cell toxicity [3]: no evidence | tissue distribution after intravenous administration ([4]; iv): mainly found in the liver, spleen, and bone marrow | projected calculated terminal half-life (t1/2) [4]: approximately 16 hours | mean changes in phosphate with respect to baseline (FIG. 1) (serum phosphate [5]; [9]): decreased with respect to baseline values | incidence of serum phosphate<2.0 mg/dL (serum phosphate [5]; chronic kidney disease trial of 2500 patients, 120 days of follow-up (see Example 2)): 18.5% | proportion of subjects with PCS low phosphorus (serum phosphate [5]; treatment-emergent potentially clinically significant value): 18.5% | changes in FGF-23 with respect to baseline (FIG. 1) (FGF-23; [9]): almost always decreases with respect to baseline (except for FCM on Day 14) | FGF 23 change from baseline to Day 56 within group (FGF-23; in vivo): statistically significant decrease | subjects who experienced one or more adverse events [6]: 68% | subjects with adverse events considered to be related to study drug [6]: 32% | adverse event: reduced serum phosphate noted by subjects' physicians ([6]; p=0.008 between groups): 32% | Discontinuation from study due to adverse event, n (%) ([6]; safety population): 2 (8%) n (%) | Patients experiencing one or more adverse events related to study drug, n (%) ([6]; safety population): 8 (32%) n (%) | Patients experiencing one or more adverse events, n (%) ([6]; safety population): 17 (68%) n (%) | Patients experiencing one or more serious adverse events, n (%) ([6]; safety population): 0 (0%) n (%) | treatment-related local tissue irritation [7]: No treatment-related local tissue irritation was observed | mean change in phosphate (phosphate): 1.9 mg/dL | acute toxicity relative to iron sucrose [8]: one-fifth
